The source of these data is patent US9266883B2, “Ring-fused bicyclic pyridyl derivatives as FGFR4 inhibitors” (Novartis AG, priority 2013, dated 2016).

In experiment [1] the target is FGFR4 (GST-FGFR4(388-802)) (Homo sapiens (Human), UniProt P22455). Kind of experiment: In-vitro biochemical kinase assay for FGFR4 (Caliper microfluidic mobility shift).
Another experiment concerns the target Tel-FGFR4 (Homo sapiens (Human), UniProt P22455). Kind of experiment: In vitro cellular kinase assay for FGFR4 (BaF3-Tel-FGFR4 cells, MSD capture ELISA of tyrosine phosphorylation). The format is cell-based. On the technique in general: In an ELISA, binding on a coated surface is turned into a signal by an enzyme label.
Experiment [2] deals with HuH-7 hepatocellular carcinoma cells. Kind of experiment: CellTiter Glo (CTG) Assay. To be noted: Homo sapiens, Huh-7, 72 h, read-out: HUH7 proliferation (nM) CTG. For orientation: ATP-based viability assays read luminescence as a measure of living cells.
The mark [3] stands for this setting: read-out: Biochemical FGFR4 IC50.
[4] abbreviates: BaF3-Tel-FGFR4 cells, 1 hour incubation, read-out: Cellular BaF3 FGFR4 IC50.
Where [5] appears, read: biochemical FGFR4 assay, read-out: Biochemical IC50.
[6] abbreviates: Cellular BaF3 FGFR4 assay, read-out: Cellular IC50.

Like-named read-outs stand apart in the source and are kept apart here.

Tel-FGFR4, sequence (P22455 other isoform, or with tags, fused parts or gaps): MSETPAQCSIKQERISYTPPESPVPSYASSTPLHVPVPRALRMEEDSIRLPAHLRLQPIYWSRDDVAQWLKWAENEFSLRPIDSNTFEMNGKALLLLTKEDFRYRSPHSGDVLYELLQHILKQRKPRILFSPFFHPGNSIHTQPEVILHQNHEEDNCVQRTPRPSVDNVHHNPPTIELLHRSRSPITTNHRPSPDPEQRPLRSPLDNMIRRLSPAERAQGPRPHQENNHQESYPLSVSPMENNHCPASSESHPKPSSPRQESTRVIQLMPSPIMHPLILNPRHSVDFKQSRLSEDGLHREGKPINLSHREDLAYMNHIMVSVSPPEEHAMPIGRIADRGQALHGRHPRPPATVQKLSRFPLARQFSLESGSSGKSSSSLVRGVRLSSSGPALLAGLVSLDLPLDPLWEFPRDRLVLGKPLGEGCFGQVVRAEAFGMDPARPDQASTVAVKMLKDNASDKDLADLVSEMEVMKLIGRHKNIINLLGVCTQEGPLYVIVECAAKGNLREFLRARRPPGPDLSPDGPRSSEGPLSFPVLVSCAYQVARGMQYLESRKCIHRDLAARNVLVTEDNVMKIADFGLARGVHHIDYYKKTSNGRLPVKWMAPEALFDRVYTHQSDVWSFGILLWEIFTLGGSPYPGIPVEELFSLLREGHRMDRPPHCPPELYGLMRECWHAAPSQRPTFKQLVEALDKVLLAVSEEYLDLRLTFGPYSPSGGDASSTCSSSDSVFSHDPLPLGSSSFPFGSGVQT
FGFR4 (GST-FGFR4(388-802)), sequence (P22455 388-802): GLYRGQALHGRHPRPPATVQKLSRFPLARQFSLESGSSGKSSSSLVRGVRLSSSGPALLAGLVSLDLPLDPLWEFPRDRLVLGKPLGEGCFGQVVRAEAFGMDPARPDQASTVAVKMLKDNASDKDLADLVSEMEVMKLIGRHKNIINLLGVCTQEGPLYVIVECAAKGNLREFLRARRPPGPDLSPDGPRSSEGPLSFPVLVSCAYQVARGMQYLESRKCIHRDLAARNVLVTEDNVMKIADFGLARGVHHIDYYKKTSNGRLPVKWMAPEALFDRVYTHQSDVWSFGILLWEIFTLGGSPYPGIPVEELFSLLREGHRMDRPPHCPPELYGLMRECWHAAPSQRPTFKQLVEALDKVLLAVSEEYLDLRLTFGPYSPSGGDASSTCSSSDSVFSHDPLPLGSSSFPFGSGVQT

For `COCCNc1cc(NC(=O)N2CCCc3cc(CN4CC[C@@H](O)C4=O)c(C=O)nc32)ncc1C#N` [Example 105, (R)-N-(5-cyano-4-((2-methoxyethyl)amino)pyridin-2-yl)-7-formyl-6-((3-hydroxy-2-oxopyrrolidin-1-yl)methyl)-3,4-dihydro-1,8-naphthyridine-1(2H)-carboxamide], the IC50 in experiment [1] (setting [3]) worked out at 0.8 nM; on Tel-FGFR4 (setting [4]), 6.2 nM; in experiment [2], 32.5 nM.
Consider `CN1CCN(Cc2cc3c(nc2C=O)N(C(=O)Nc2cc(NCCOC(C)(C)C)c(C#N)cn2)CCC3)C(=O)C1` [Example 196, N-(4-((2-(tert-butoxy)ethyl)amino)-5-cyanopyridin-2-yl)-7-formyl-6-((4-methyl-2-oxopiperazin-1-yl)methyl)-3,4-dihydro-1,8-naphthyridine-1(2H)-carboxamide], for which the IC50 is 18 nM on Tel-FGFR4 (setting [4]) and 150 nM in experiment [2].
As for `COCCNc1cc(NC(=O)N2CCCc3cc(CN4C(=O)COC[C@@H]4C)c(C=O)nc32)ncc1C#N` [Example 120, (S)-N-(5-cyano-4-((2-methoxyethyl)amino)pyridin-2-yl)-7-formyl-6-((3-methyl-5-oxomorpholino)methyl)-3,4-dihydro-1,8-naphthyridine-1(2H)-carboxamide], the IC50 in experiment [2] was 160 nM.
`COCCNc1cc(NC(=O)N2CCCc3cc(CN4C[C@@H](C)N[C@@H](C)C4)c(C=O)nc32)ncc1C#N` [Example 242, N-(5-cyano-4-((2-methoxyethyl)amino)pyridin-2-yl)-6-(((3R,5S)-3,5-dimethylpiperazin-1-yl)methyl)-7-formyl-3,4-dihydro-1,8-naphthyridine-1(2H)-carboxamide]: the IC50 in experiment [1] (setting [3]) was found to be 2.6 nM; at Tel-FGFR4 (setting [4]), 27 nM; in experiment [2] it was 1780 nM.
For `COCCNc1cc(NC(=O)N2CCCc3cc(-n4ccnc4)c(C=O)nc32)ncc1C#N` [Example 254, N-(5-cyano-4-((2-methoxyethyl)amino)pyridin-2-yl)-7-formyl-6-(1H-imidazol-1-yl)-3,4-dihydro-1,8-naphthyridine-1(2H)-carboxamide], in that order: 1.1 nM, 44.5 nM and 1160 nM.
For `COC[C@@H](Oc1cc(NC(=O)N2CCCc3cc(C(F)F)c(C=O)nc32)ncc1C#N)C(F)(F)F` [Example 173, (R)-N-(5-cyano-4-((1,1,1-trifluoro-3-methoxypropan-2-yl)oxy)pyridin-2-yl)-6-(difluoromethyl)-7-formyl-3,4-dihydro-1,8-naphthyridine-1(2H)-carboxamide], in that order: 33 nM, 142 nM and 1360 nM.
For `COCCNc1cc(NC(=O)N2CCCc3cc(N4CCOC4=O)c(C=O)nc32)ncc1C#N` [Example 263, N-(5-cyano-4-((2-methoxyethyl)amino)pyridin-2-yl)-7-formyl-6-(2-oxooxazolidin-3-yl)-3,4-dihydro-1,8-naphthyridine-1(2H)-carboxamide], in that order: 0.2 nM, 11 nM and 894 nM.
For the molecule `CC(C)Oc1cc(NC(=O)N2c3nc(C=O)c(CN4CCN(C)CC4=O)cc3CC[C@@H]2C)ncc1C#N` [Example 227, (S)-N-(5-cyano-4-isopropoxypyridin-2-yl)-7-formyl-2-methyl-6-((4-methyl-2-oxopiperazin-1-yl)methyl)-3,4-dihydro-1,8-naphthyridine-1(2H)-carboxamide], the IC50 in experiment [2] turned out to be 104 nM.
For the molecule `CC(C)n1cnc2cnc(NC(=O)N3CCCc4cc(CN5CCCC5=O)c(C=O)nc43)cc21` [Example 220, 7-formyl-N-(1-isopropyl-1H-imidazo[4,5-c]pyridin-6-yl)-6-((2-oxopyrrolidin-1-yl)methyl)-3,4-dihydro-1,8-naphthyridine-1(2H)-carboxamide], the IC50 in experiment [1] (setting [3]) is 96 nM; on Tel-FGFR4 (setting [4]), 94 nM; in experiment [2] it was over 3000 nM.
Take `COCCNc1cc(NC(=O)N2CCCc3cc(CN4C(=O)COC[C@H]4C)c(C=O)nc32)ncc1C#N` [Example 118, (R)-N-(5-cyano-4-((2-methoxyethyl)amino)pyridin-2-yl)-7-formyl-6-((3-methyl-5-oxomorpholino)methyl)-3,4-dihydro-1,8-naphthyridine-1(2H)-carboxamide]: in experiment [2], the IC50 turned out to be 101 nM.
The same measure, in the same setting: to `COCCNc1cc(NC(=O)N2CCCc3cc(CN4CCCC45COC5)c(C=O)nc32)ncc1C#N` [Example 193, 6-(2-oxa-5-azaspiro[3.4]octan-5-ylmethyl)-N-(5-cyano-4-((2-methoxyethyl)amino)pyridin-2-yl)-7-formyl-3,4-dihydro-1,8-naphthyridine-1(2H)-carboxamide] belongs 2780 nM; to `COCCOc1cc(NC(=O)N2c3nc(C=O)c(CN4CCN(C)CC4=O)cc3CC[C@@H]2C)ncc1C#N` [Example 226, (S)-N-(5-cyano-4-(2-methoxyethoxyl)pyridin-2-yl)-7-formyl-2-methyl-6-((4-methyl-2-oxopiperazin-1-yl)methyl)-3,4-dihydro-1,8-naphthyridine-1(2H)-carboxamide], 134 nM.
As for `COCCNc1cc(NC(=O)N2CCCc3cc(CN4CC[C@H](O)C4=O)c(C=O)nc32)ncc1C#N` [Example 100, (S)-N-(5-cyano-4-((2-methoxyethyl)amino)pyridin-2-yl)-7-formyl-6-((3-hydroxy-2-oxopyrrolidin-1-yl)methyl)-3,4-dihydro-1,8-naphthyridine-1(2H)-carboxamide], the IC50 in experiment [1] (setting [3]) stood at 0.9 nM; on Tel-FGFR4 (setting [4]), 5.3 nM; in experiment [2] it was 23.5 nM.
For the molecule `CCc1cc(NC(=O)N2CCCc3cc(C=O)c(C=O)nc32)ncc1C#N` [Example 106, N-(5-cyano-4-ethylpyridin-2-yl)-6,7-diformyl-3,4-dihydro-1,8-naphthyridine-1(2H)-carboxamide], the IC50 in experiment [1] (setting [3]) was 95 nM; on Tel-FGFR4 (setting [4]), 2530 nM; in experiment [2], over 3000 nM.
For `N#Cc1cnc(NC(=O)N2CCCc3cc(CN4CCCC4=O)c(C=O)nc32)cc1OCC1CCNC(=O)C1` (racemic) [Example 225, N-(5-cyano-4-((2-oxopiperidin-4-yl)methoxy)pyridin-2-yl)-7-formyl-6-((2-oxopyrrolidin-1-yl)methyl)-3,4-dihydro-1,8-naphthyridine-1(2H)-carboxamide] the same measures were 5.7 nM, 76.5 nM and 1000 nM.
Consider `N#Cc1cnc(NC(=O)N2CCCc3cc(CO)c(C=O)nc32)cc1N[C@@H]1[C@H]2CC[C@H](C2)[C@@H]1CO` (racemic) [Example 65, N-(5-cyano-4-(((1S*,2R*,3S*,4R*)-3-(hydroxymethyl)bicyclo[2.2.1]heptan-2-yl)amino)pyridin-2-yl)-7-formyl-6-(hydroxymethyl)-3,4-dihydro-1,8-naphthyridine-1(2H)-carboxamide], for which the results for the IC50 (in experiment [1] (setting [3]); on Tel-FGFR4 (setting [4]); in experiment [2]) were 0.8 nM, 14.6 nM and 65 nM, respectively.
Take `CN1CCCC(COc2cc(NC(=O)N3CCCc4cc(CO)c(C=O)nc43)ncc2C#N)C1` (racemic) [Example 73, N-(5-cyano-4-((1-methylpiperidin-3-yl)methoxy)pyridin-2-yl)-7-formyl-6-(hydroxymethyl)-3,4-dihydro-1,8-naphthyridine-1(2H)-carboxamide]: the IC50 in experiment [2] worked out at 502 nM.
Same read-out and setting: next, `N#Cc1cnc(NC(=O)N2CCCc3ccc(C=O)nc32)cc1OCC1CCCCO1` (racemic) [Example 36, N-(5-cyano-4-((tetrahydro-2H-pyran-2-yl)methoxy)pyridin-2-yl)-7-formyl-3,4-dihydro-1,8-naphthyridine-1(2H)-carboxamide]: over 3000 nM; `COCCNc1cc(NC(=O)N2CCCc3cc(-c4cccnc4)c(C=O)nc32)ncc1C#N` [Example 256, N-(5-cyano-4-((2-methoxyethyl)amino)pyridin-2-yl)-7-formyl-6-(pyridin-3-yl)-3,4-dihydro-1,8-naphthyridine-1(2H)-carboxamide]: 1360 nM.
With `COCCNc1cc(NC(=O)N2CCCc3cc(C(C)N(C)C(C)=O)c(C=O)nc32)ncc1C#N` (racemic) [Example 135, N-(5-cyano-4-((2-methoxyethyl)amino)pyridin-2-yl)-7-formyl-6-(1-(N-methylacetamido)ethyl)-3,4-dihydro-1,8-naphthyridine-1(2H)-carboxamide], the IC50 in experiment [2] was 2850 nM.
On to `COCCNc1cc(NC(=O)N2CCCc3cc(CN4CCN(C)C(C)(C)C4=O)c(C=O)nc32)ncc1C#N` [Example 245, N-(5-cyano-4-((2-methoxyethyl)amino)pyridin-2-yl)-7-formyl-6-((3,3,4-trimethyl-2-oxopiperazin-1-yl)methyl)-3,4-dihydro-1,8-naphthyridine-1(2H)-carboxamide], for which the IC50 stood at 11.5 nM on Tel-FGFR4 (setting [4]) and 103 nM in experiment [2].
With `CC(C)Oc1cc(NC(=O)N2CCCc3cc(CN4CCN(C)CC4=O)c(C=O)nc32)ncc1C#N` [Example 92, N-(5-cyano-4-isopropoxypyridin-2-yl)-7-formyl-6-((4-methyl-2-oxopiperazin-1-yl)methyl)-3,4-dihydro-1,8-naphthyridine-1(2H)-carboxamide], the figures for the IC50 (in experiment [1] (setting [3]); on Tel-FGFR4 (setting [4])) were 0.7 nM and 3.3 nM, respectively.
As for `CC(=O)N(C)Cc1cc2c(nc1C=O)N(C(=O)Nc1cc(NCCO)c(C#N)cn1)CCC2` [N-(5-cyano-4-((2-hydroxyethyl)amino)pyridin-2-yl)-7-formyl-6-((N-methylacetamido)methyl)-3,4-dihydro-1,8-naphthyridine-1(2H)-carboxamide], the IC50 in experiment [1] (setting [5]) is 0.5 nM; at Tel-FGFR4 (setting [6]), 8.1 nM.
For `COC[C@H](C)Oc1cc(NC(=O)N2CCCc3cc(CN(C)C(C)=O)c(C=O)nc32)ncc1C#N` [(S)-N-(5-cyano-4-((1-methoxypropan-2-yl)oxy)pyridin-2-yl)-7-formyl-6-((N-methylacetamido)methyl)-3,4-dihydro-1,8-naphthyridine-1(2H)-carboxamide], in that order: 4 nM and 12.1 nM.
